Patent publication US20070160554A1, “Acyl ribonucleosides and acyl deoxyribonucleosides, compositions of, and methods of making same” (COGNIS IP MANAGEMENT GMBH, priority 2003, published 2007)
Where two headings read alike, the source gives them in different places.

Experiments:
human fibroblasts [1] = assay: Non-toxicity on quiescent human fibroblasts (second experiment: DNA, ATP, proteins, GSH/proteins); format: cell-based; details: for ATP / DNA / GSH/proteins / Proteins: quiescent fibroblasts, 3 days; for modification of growth, energetic metabolism and protein metabolism of the fibroblasts: human fibroblasts in vitro
Description: Uridine palmitate and uridine stearate were added in the culture medium starting from a stock solution at 1% (w/v) in DMSO. After an incubation of 3 days the number of viable cells was determined by evaluation of the levels of cellular DNA (fluorescent probe), ATP, proteins (Bradford's method) and the rate of cellular GSH (GSH is glutathione) normalised to the level of cellular proteins.

[2] = tested on: Melanocytes (B16 cell line); assay: Inhibition of melanin synthesis in B16 melanocytes (melanin by optical density at 475 nm, cellular proteins by Bradford); format: cell-based, mouse; details: for effect on the rate of released melanin / inhibition of melanin synthesis: B16 melanocytes, at concentrations not toxic to human fibroblasts; for Rate of Melanin / Rate of cellular proteins: B16, 3 days
From the text: Melanin is the pigment responsible for the colour of skin and hairs. Melanin synthesis takes place in specific organelles so called melanosomes in human melanocytes located in the basal layer of the human epidermis. This synthesis begins by oxidation of tyrosine to DOPA (dihydroxy-phenyl-alanine) by tyrosinase and then DOPA polymerises to melanin which is stored in melanosomes.
Melanocytes (B16 cell line: B16 is the name of the mouse melanoma cells used in this test.) were inoculated in standard cell culture medium of foetal calf serum (FCS). […] Uridine palmitate and ulidine stearate were added to the culture medium starting from a stock solution at 1% (w/v) in DMSO. After an incubation of 3 days, the number of viable cells was determined by the evaluation of the levels of cellularproteins (Bradford's method) and the level of synthesized melanin was measured by recording the optical density at 475 nm of cell's homogenate. The results are expressed in table 4.

human fibroblasts [3] = details: for Proteins (level of cellular proteins) / LD50: 3 days; for LD50: human
Description: In a first experiment, human fibroblasts were inoculated in a standard cell culture medium of foetal calf serum (or FCS). After an incubation of 1 day at 37° C. under an atmosphere of air, enriched to a carbon dioxide content of 5%, the growth medium was exchanged for a standard medium with a range of concentrations of uridine, uridine palmitate and uridine stearate.

## CCCCCCCCCCCCCCCC(=O)O[C@@H]1[C@H](O)[C@@H](CO)O[C@H]1n1ccc(=O)[nH]c1=O [Mono-O-palmitoyl uridine, Mono-O-Palmitoyl Uridine]
Human fibroblasts [1]; dose 0,001 % w/v
  ATP: 111 %/control
  DNA: 92 %/control
  GSH/proteins: 103 %/control
  Proteins: 98 %/control
Human fibroblasts [1]; dose 0,003 % w/v
  ATP: 86 %/control
  DNA: 83 %/control
  GSH/proteins: 108 %/control
  Proteins: 91 %/control
Human fibroblasts [1]
  modification of growth, energetic metabolism and protein metabolism of the fibroblasts: not modified the growth of the fibroblasts
[2]
  effect on the rate of released melanin / inhibition of melanin synthesis: strongly decreased the rate of released melanin
[2]; dose 0.001 % w/v
  Rate of Melanin: 98 % against control
  Rate of cellular proteins: 100 % against control
[2]; dose 0.003 % w/v
  Rate of Melanin: 69 % against control
  Rate of cellular proteins: 95 % against control
[2]; dose 0.01 % w/v
  Rate of Melanin: 44 % against control
  Rate of cellular proteins: 110 % against control
Human fibroblasts [3]
  toxic effects on growing human fibroblasts cultured in vitro: not shown any toxic effects
  LD50: >0.01% w/v
Human fibroblasts [3]; dose 0.003 % w/v
  Proteins (level of cellular proteins): 92 %/control
Human fibroblasts [3]; dose 0.01 % w/v
  Proteins (level of cellular proteins): 97 %/control

## CCCCCCCCCCCCCCCCCC(=O)O[C@@H]1[C@H](O)[C@@H](CO)O[C@H]1n1ccc(=O)[nH]c1=O [Mono-O-stearoyl uridine, Mono-O-Stearoyl Uridine]
Human fibroblasts [1]; dose 0,0015 % w/v
  ATP: 91 %/control
  DNA: 94 %/control
  GSH/proteins: 98 %/control
  Proteins: 96 %/control
Human fibroblasts [1]; dose 0,005 % w/v
  ATP: 92 %/control
  DNA: 100 %/control
  GSH/proteins: 135 %/control
  Proteins: 95 %/control
Human fibroblasts [1]
  modification of growth, energetic metabolism and protein metabolism of the fibroblasts: not modified the growth of the fibroblasts
[2]
  effect on the rate of released melanin / inhibition of melanin synthesis: strongly decreased the rate of released melanin
[2]; dose 0.001 % w/v
  Rate of Melanin: 84 % against control
  Rate of cellular proteins: 98 % against control
[2]; dose 0.003 % w/v
  Rate of Melanin: 65 % against control
  Rate of cellular proteins: 92 % against control
[2]; dose 0.01 % w/v
  Rate of Melanin: 19 % against control
  Rate of cellular proteins: 99 % against control
Human fibroblasts [3]
  toxic effects on growing human fibroblasts cultured in vitro: not shown any toxic effects
  LD50: >0.01% w/v
Human fibroblasts [3]; dose 0.0005 % w/v
  Proteins (level of cellular proteins): 90 %/control
Human fibroblasts [3]; dose 0.0015 % w/v
  Proteins (level of cellular proteins): 87 %/control

## CCCC(=O)OC[C@H]1O[C@@H](n2ccc(=O)[nH]c2=O)[C@H](OC(=O)CCC)[C@@H]1OC(=O)CCC [Tri-O-Butyryl-Uridine, reference compound]
[2]
  effect on the rate of released melanin / inhibition of melanin synthesis: no or only a very poor effect
[2]; dose 0.001 % w/v
  Rate of Melanin: 106 % against control
  Rate of cellular proteins: 100 % against control
[2]; dose 0.003 % w/v
  Rate of Melanin: 106 % against control
  Rate of cellular proteins: 106 % against control
[2]; dose 0.01 % w/v
  Rate of Melanin: 105 % against control
  Rate of cellular proteins: 103 % against control

## O=c1ccn([C@@H]2O[C@H](CO)[C@@H](O)[C@H]2O)c(=O)[nH]1 [Uridine, uridine, reference compound]
Human fibroblasts [1]; dose 0,01 % w/v
  ATP: 100 %/control
  DNA: 103 %/control
  GSH/proteins: 107 %/control
  Proteins: 100 %/control
Human fibroblasts [1]; dose 0,03 % w/v
  ATP: 89 %/control
  DNA: 94 %/control
  GSH/proteins: 102 %/control
  Proteins: 104 %/control
[2]
  effect on the rate of released melanin / inhibition of melanin synthesis: no or only a very poor effect
[2]; dose 0.03 % w/v
  Rate of Melanin: 92 % against control
  Rate of cellular proteins: 94 % against control
[2]; dose 0.1 % w/v
  Rate of Melanin: 92 % against control
  Rate of cellular proteins: 97 % against control
Human fibroblasts [3]; dose 0.03 % w/v
  Proteins (level of cellular proteins): 104 %/control
Human fibroblasts [3]; dose 0.1 % w/v
  Proteins (level of cellular proteins): 99 %/control
